# Source: patent US12539289B2, “Phorbol ester compositions and methods of use for treating or reducing the duration of cytopenia” (BIOSUCCESS BIOTECH CO., LTD., priority 2014, dated 2026)
# “And” between values parts separate entries of the source, which are not always exact repeats. Equal entries are not always repeated.
# Assays:
# [1] = tested on: bone marrow stromal cells (BMSCs) from healthy persons; assay: BMSC proliferation or inhibition, CCK8 method, healthy persons; format: cell-based, human; details: BMSCs of the healthy human and the AML patient after chemotherapy
# Experimental: (§1) To explore the effect of TPA alone or combined rhG-CSF on bone marrow hematopoietic cells proliferation and colony formation ability which from patients of acute myeloid leukemia (AML) in the period of bone marrow suppression in vitro and to observe the effect of TPA on bone marrow stromal cells(BMSCs) proliferation or inhibition from patients of AML in the period of myelosuppression and the healthy persons.
# (§2) • 1) Human bone marrow cells from the same AML patient after chemotherapy were cultured by methyl cellulose semi-solid culture medium. Groups: Blank, TPA (10 ng/ml), G-CSF (50 ng/ml), TPA (10 ng/ml)+GCSF (50 ng/ml). The experiments were repeated for 4 times. • 2) The stroma cells of bone marrow from the healthy human and the AML patient after chemotherapy were cultured by methyl cellulose semi-solid culture medium. Different TPA concentrations were added. Groups: Blank, TPA (0.1 ng/ml), TPA (1.0 ng/ml), TPA (5 ng/ml), TPA (10 ng/ml), TPA (20 ng/ml), TPA (30 ng/ml). • 3) Cultivation of BMSCs from healthy persons and patients of AML in the bone marrow suppression phase in vitro, added to TPA of different concentrations, 0.1 ng/ml, 1.0 ng/ml, 5 ng/ml, 10 ng/ml, 20 ng/ml, 30 ng/ml, and set up a control to detect cell proliferation or inhibition with CCK8 method. Results and Conclusion: • 1. […]
# [2] = tested on: bone marrow stromal cells (BMSCs) from patients of AML in the bone marrow suppression phase; assay: BMSC proliferation or inhibition, CCK8 method, AML patients; format: cell-based, human
# Experimental: as §1, §2
# [3] = tested on: Human bone marrow cells from the same AML patient after chemotherapy; assay: Colony formation of bone marrow hematopoietic cells in methyl cellulose semi-solid culture medium; format: cell-based
# Experimental: as §1
# • 1) Human bone marrow cells from the same AML patient after chemotherapy were cultured by methyl cellulose semi-solid culture medium. Groups: Blank, TPA (10 ng/ml), G-CSF (50 ng/ml), TPA (10 ng/ml)+GCSF (50 ng/ml). The experiments were repeated for 4 times. • 2) The stroma cells of bone marrow from the healthy human and the AML patient after chemotherapy were cultured by methyl cellulose semi-solid culture medium. Different TPA concentrations were added. Groups: Blank, TPA (0.1 ng/ml), TPA (1.0 ng/ml), TPA (5 ng/ml), TPA (10 ng/ml), TPA (20 ng/ml), TPA (30 ng/ml). • 3) Cultivation of BMSCs from healthy persons and patients of AML in the bone marrow suppression phase in vitro, added to TPA of different concentrations, 0.1 ng/ml, 1.0 ng/ml, 5 ng/ml, 10 ng/ml, 20 ng/ml, 30 ng/ml, and set up a control to detect cell proliferation or inhibition with CCK8 method. Results and Conclusion: • 1. Compared the clones of four groups in incomplete medium, in the control group a small cell clusters can be seen for 24-72 hours, but the cells were dead as time prolong. Cultivated 14 days, control group have no clones formation, CFU-GM are dominated for G-CSF group, TPA alone and combination with G-CSF group have myeloid colony formation, while BFU-E and CFU-GEMM. […] Compared the clones of different concentration of TPA stimulation in incomplete medium, the total clones of 5 ng/ml, 10 ng/ml, 20 ng/ml group are higher than other groups, including 10 ng/ml in the highest, there are statistical significance (both P<0.05). While decreasing or increasing TPA concentration can not improve the colony number. The better concentration of TPA to stimulate the colony formation is 5˜20 ng/ml. […] Compared the clones of different concentration of TPA and G-CSF (50 ng/ml) stimulation in incomplete medium. Combination with G-CSF the better concentration of TPA is 1˜10 ng/ml (both P<0.05). Combination with G-CSF the best concentration of TPA is 5 ng/ml and 1 ng/ml. for CFU-GM and CFU-GEMM. The main clone types are myeloid colones, CFU-GM, also have CFU-GEMM and fewer BFU-E. • 4. […] While TPA group and G-CSF group the number of clones of TPA group and G-CSF group have no statistical significance (P=0.577). • 5. […] Meanwhile, TPA promote bone marroe stromal cells from the AML patients proliferation of concentration 5˜30 ng/ml (cell number 2×10^5/ml). 5 ng/ml of TPA is the best concentration of promoting proliferation, and G-CSF had no effect on the growth of BMSCs from healthy persons or AML patients.
# [4] = tested on: post-chemotherapy neutropenia; details: cited from earlier work
# [5] = tested on: Drug Induced Cytopenia; assay: Drug induced cytopenia treated by TPA: blood cell counts after DNR + Ara-C; format: in vivo, mice; details: for PLT / RBC / WBC: n = 10
# Experimental: Ninety (90) adult mice were randomly assigned to 9 groups (10 mice per group). No drug was administered in Control group. Model group was given DNR (6 mg/kg)+Ara-C (150 mg/kg) on Day 0. The rest of the 7 groups were given DNR (6 mg/kg)+Ara-C (150 mg/kg) on Day 0, and each group on Day 7, Day 8, and Day 9 was administered with one of the following drugs: G-CSF (10 μg/kg), EPO (500 IU/kg), TPA (12.5 μg/kg), TPA (25 μg/kg), TPA (50 μg/kg), TPA (12.5 μg/kg)+GCSF (10 μg/kg), or TPA (12.5 μg/kg)+EPO (500 IU/kg).
# [6] = 8 days after DNR + Ara-c, 1 day after 1st dose, G-CSF 10, EPO 500, TPA 12.5, TPA + GCSF 12.5 + 10, TPA + EPO 12.5 + 500 (μg·kg^−1)
# [7] = 8 days after DNR + Ara-c, 1 day after 1st dose, TPA 25 μg·kg^−1
# [8] = 8 days after DNR + Ara-c, 1 day after 1st dose, TPA 50 μg·kg^−1
# [9] = 9 days after DNR + Ara-c, 1 day after 2nd dose, G-CSF 10, EPO 500, TPA 12.5, TPA + GCSF 12.5 + 10, TPA + EPO 12.5 + 500 (μg·kg^−1)
# [10] = 9 days after DNR + Ara-c, 1 day after 2nd dose, TPA 25 μg·kg^−1
# [11] = 9 days after DNR + Ara-c, 1 day after 2nd dose, TPA 50 μg·kg^−1
# [12] = 10 days after DNR + Ara-c, 1 day after 3rd dose, G-CSF 10, EPO 500, TPA 12.5, TPA + GCSF 12.5 + 10, TPA + EPO 12.5 + 500 (μg·kg^1)
# [13] = 10 days after DNR + Ara-c, 1 day after 3rd dose, TPA 25 μg·kg^1
# [14] = 10 days after DNR + Ara-c, 1 day after 3rd dose, TPA 50 μg·kg^1
structure (smiles),measurement,setting,value
"CCCCCCCCCCCCCC(=O)O[C@@H]1[C@@H](C)[C@@]2(O)[C@@H](C=C(CO)C[C@]3(O)C(=O)C(C)=C[C@@H]23)[C@@H]2C(C)(C)[C@]12OC(C)=O [TPA, 12-O-tetradecanoylphorbol-13-acetate]",optimal concentrations for growth of stroma cells of bone marrow (BMSCs),[1],5 ng/mL and 10 ng/mL
same,best concentration of promoting proliferation of BMSCs,[2],5 ng/mL
same,best concentration for hematopoietic cell clone formation (highest total clones),"[3]; TPA alone, incomplete medium",10 ng/mL
same,"colony types whose formation is promoted (CFU-GM, CFU-GEMM, BFU-E)","[3]; bone marrow of AML patients in the period of bone marrow suppression, in vitro","promoted the formation of CFU-GM, CFU-GEMM, and BFU-E"
same,total number of clones,"[3]; incomplete medium, cultivated 14 days, TPA 10 ng/ml, G-CSF 50 ng/ml",higher than G-CSF group
same,duration of post-chemotherapy neutropenia,[4]; acute myelocytic leukemia (AML) patients,capable of shortening the duration of post-chemotherapy neutropenia
same,tolerability,[4]; recommended Phase 2 dose 0.125 mg/m^2 daily up to 5 days a week×2 weeks,well tolerated with only minor adverse events
same,PLT,[5]; [6],395 ± 30.41^(1)(1)(2)(2) ×10^9/L
same,RBC,[5]; [6],6.08 ± 0.49^(1)(1)(2)(3)(3)(4) ×10^12/L
same,WBC,[5]; [6],6.4 ± 0.62^(2)(2) ×10^9/L
same,PLT,[5]; [7],391 ± 20.42^(1)(1)(2)(2) ×10^9/L
same,RBC,[5]; [7],7.09 ± 0.23^(1)(1)(2)(2)(3)(3)(5) ×10^12/L
same,WBC,[5]; [7],6.4 ± 0.35^(2)(2) ×10^9/L
same,PLT,[5]; [8],413 ± 9.64^(1)(1)(2)(2) ×10^9/L
same,RBC,[5]; [8],7.10 ± 0.24^(1)(1)(2)(2)(3)(3)(5) ×10^12/L
same,WBC,[5]; [8],6.5 ± 0.75^(2)(2) ×10^9/L
same,PLT,[5]; [9],965 ± 76.23^(1)(1)(2)(2) ×10^9/L
same,RBC,[5]; [9],7.47 ± 0.55^(1)(1)(2)(2)(3)(3) ×10^12/L
same,WBC,[5]; [9],6.84 ± 0.44^(2) ×10^9/L
same,PLT,[5]; [10],951 ± 70.29^(1)(1)(2)(2) ×10^9/L
same,RBC,[5]; [10],7.34 ± 0.87^(1)(1)(2)(2)(3)(3) ×10^12/L
same,WBC,[5]; [10],6.72 ± 0.50^(2) ×10^9/L
same,PLT,[5]; [11],999 ± 45.67^(1)(1)(2)(2) ×10^9/L
same,RBC,[5]; [11],7.30 ± 0.49^(1)(1)(2)(2)(3)(3) ×10^12/L
same,WBC,[5]; [11],6.86 ± 0.39^(2) ×10^9/L
same,PLT,[5]; [12],1447 ± 78.09^(2)(2) ×10^9/L
same,RBC,[5]; [12],7.59 ± 0.67^(1)(1)(2)(2)(3)(3) ×10^12/L
same,WBC,[5]; [12],9.51 ± 0.85^(1)(1)(2)(2)(4)(4) ×10^9/L
same,PLT,[5]; [13],1465 ± 72.81^(2)(2) ×10^9/L
same,RBC,[5]; [13],8.26 ± 0.63^(1)(1)(2)(2)(3)(3)(5) ×10^12/L
same,WBC,[5]; [13],9.69 ± 0.85^(1)(1)(2)(2)(4)(4) ×10^9/L
same,RBC,[5]; [14],8.18 ± 0.55^(1)(1)(2)(2)(3)(3)(5) ×10^12/L
same,WBC,[5]; [14],9.90 ± 0.64^(1)(1)(2)(2)(4)(4) ×10^9/L
same,PLT,"[5]; 10 days after DNR + Ara-c, 1 day after 3rd dose, TPA 50 μg·kg^−1",1463 ± 80.33^(2)(2) ×10^9/L
same,"production of WBC, RBC, and platelet",[5]; conclusion of Example 6,"promoted the production of WBC, RBC, and platelet"
